Tested on: 292921-168-R-J2-PDC KRAS tumor spheroid viability
Experiment: Anticancer human tumor 292921-168-R-J2-PDC patient-derived pancreatic carcinoma cell line growth inhibition [KRAS2]
Details: spheroids with HUVEC and MSC; for viability, T/C: stronger effect = lower value
Method in brief: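 KRAS-mutant tumor cells were grown as spheroids with HUVEC endothelial cells and human MSCs as stroma. Targeted agents were tested alone and with KRAS pathway inhibitors. Doses started at or near clinical Cmax, or 10 microM, descending half-log.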

[1] = curve of first compound, second compound 0.1 µM
[2] = curve of first compound, second compound 0.316 µM
[3] = curve of first compound, second compound 1 µM
[4] = curve of first compound, second compound 3.16 µM
[5] = curve of first compound, second compound 10 µM
[6] = second compound 0.1 µM, first compound 0.000316 µM
[7] = second compound 0.1 µM, first compound 0.001 µM
[8] = second compound 0.1 µM, first compound 0.00316 µM
[9] = second compound 0.1 µM, first compound 0.01 µM
[10] = second compound 0.1 µM, first compound 0.0316 µM
[11] = second compound 0.316 µM, first compound 0.000316 µM
[12] = second compound 0.316 µM, first compound 0.001 µM
[13] = second compound 0.316 µM, first compound 0.00316 µM
[14] = second compound 0.316 µM, first compound 0.01 µM
[15] = second compound 0.316 µM, first compound 0.0316 µM
[16] = second compound 1 µM, first compound 0.000316 µM
[17] = second compound 1 µM, first compound 0.001 µM
[18] = second compound 1 µM, first compound 0.00316 µM
[19] = second compound 1 µM, first compound 0.01 µM
[20] = second compound 1 µM, first compound 0.0316 µM
[21] = second compound 3.16 µM, first compound 0.000316 µM
[22] = second compound 3.16 µM, first compound 0.001 µM
[23] = second compound 3.16 µM, first compound 0.00316 µM
[24] = second compound 3.16 µM, first compound 0.01 µM
[25] = second compound 3.16 µM, first compound 0.0316 µM
[26] = second compound 10 µM, first compound 0.000316 µM
[27] = second compound 10 µM, first compound 0.001 µM
[28] = second compound 10 µM, first compound 0.00316 µM
[29] = second compound 10 µM, first compound 0.01 µM
[30] = second compound 10 µM, first compound 0.0316 µM
[31] = second compound 0.1 µM, first compound 0.1 µM
[32] = second compound 0.1 µM, first compound 0.316 µM
[33] = second compound 0.1 µM, first compound 1 µM
[34] = second compound 0.1 µM, first compound 3.16 µM
[35] = second compound 0.1 µM, first compound 10 µM
[36] = second compound 0.316 µM, first compound 0.1 µM
[37] = second compound 0.316 µM, first compound 0.316 µM
[38] = second compound 0.316 µM, first compound 1 µM
[39] = second compound 0.316 µM, first compound 3.16 µM
[40] = second compound 0.316 µM, first compound 10 µM
[41] = second compound 1 µM, first compound 0.1 µM
[42] = second compound 1 µM, first compound 0.316 µM
[43] = second compound 1 µM, first compound 1 µM
[44] = second compound 1 µM, first compound 3.16 µM
[45] = second compound 1 µM, first compound 10 µM
[46] = second compound 3.16 µM, first compound 0.1 µM
[47] = second compound 3.16 µM, first compound 0.316 µM
[48] = second compound 3.16 µM, first compound 1 µM
[49] = second compound 3.16 µM, first compound 3.16 µM
[50] = second compound 3.16 µM, first compound 10 µM
[51] = second compound 10 µM, first compound 0.1 µM
[52] = second compound 10 µM, first compound 0.316 µM
[53] = second compound 10 µM, first compound 1 µM
[54] = second compound 10 µM, first compound 3.16 µM
[55] = second compound 10 µM, first compound 10 µM
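Further: drug exposure lasted seven days after spheroids formed for three days.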
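Wherever viability, T/C is given: percent of DMSO vehicle control viability which is 100%.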

CC(=O)Nc1cccc(-n2c(=O)n(C3CC3)c(=O)c3c(Nc4ccc(I)cc4F)n(C)c(=O)c(C)c32)c1 + COc1cc2nc(C)nc(NC(C)c3cc(N)cc(C(F)(F)F)c3)c2cc1OC1CCOC1
IC50 [1]: 0.23 nM | IC50 [2]: 0.165 nM | IC50 [3]: 0.119 nM | IC50 [4]: 0.105 nM | IC50 [5]: < 0.1 nM | viability, T/C (second compound 0.1 µM, first compound 0.0001 µM): 72.3% | viability, T/C [6]: 40.4% | viability, T/C [7]: 25.4% | viability, T/C [8]: 16.1% | viability, T/C [9]: 11.3% | viability, T/C [10]: 8.07% | viability, T/C (second compound 0.316 µM, first compound 0.0001 µM): 57.4% | viability, T/C [11]: 40.9% | viability, T/C [12]: 22% | viability, T/C [13]: 15.7% | viability, T/C [14]: 12% | viability, T/C [15]: 8.27% | viability, T/C (second compound 1 µM, first compound 0.0001 µM): 53.6% | viability, T/C [16]: 31.5% | viability, T/C [17]: 20.9% | viability, T/C [18]: 13.8% | viability, T/C [19]: 11.5% | viability, T/C [20]: 8.01% | viability, T/C (second compound 3.16 µM, first compound 0.0001 µM): 51.5% | viability, T/C [21]: 29.2% | viability, T/C [22]: 19.1% | viability, T/C [23]: 12.4% | viability, T/C [24]: 10.3% | viability, T/C [25]: 8.26% | viability, T/C (second compound 10 µM, first compound 0.0001 µM): 18.4% | viability, T/C [26]: 14.6% | viability, T/C [27]: 15% | viability, T/C [28]: 11.9% | viability, T/C [29]: 8.42% | viability, T/C [30]: 8.34%

CC(=O)OC12COC1CC(O)C1(C)C(=O)C(O)C3=C(C)C(OC(=O)C(O)C(NC(=O)OC(C)(C)C)c4ccccc4)CC(O)(C(OC(=O)c4ccccc4)C21)C3(C)C (configuration not stated)
viability, T/C (compound 0.01 µM): 14.3% [middle of 5 runs] | viability, T/C (compound 0.0316 µM): 14.3% [middle of 5 runs] | viability, T/C (compound 0.1 µM): 12.4% [middle of 5 runs] | viability, T/C (compound 0.316 µM): 12.8% [middle of 5 runs] | viability, T/C (compound 1 µM): 13.8% [middle of 5 runs] | viability, T/C (compound 3.16 µM): 17.6% [middle of 5 runs] | IC50 (curve of compound): < 10 nM

Cn1nccc1Nc1nccc(-c2cc3c(s2)C(C)(C)N(CCN2CCOCC2)C3=O)n1 + CNCc1ccccc1-c1csc(C(C)Nc2nc(C)nc3cc(OC)c(OC)cc23)c1
IC50 [1]: 83.9 nM | IC50 [2]: 66.6 nM | IC50 [3]: < 31.6 nM | IC50 [4]: < 31.6 nM | IC50 [5]: < 31.6 nM | viability, T/C [10]: 73.9% | viability, T/C [31]: 45.7% | viability, T/C [32]: 19% | viability, T/C [33]: 12.3% | viability, T/C [34]: 10.2% | viability, T/C [35]: 10.2% | viability, T/C [15]: 68.8% | viability, T/C [36]: 39.7% | viability, T/C [37]: 18.6% | viability, T/C [38]: 10.9% | viability, T/C [39]: 9.74% | viability, T/C [40]: 10.6% | viability, T/C [20]: 47.1% | viability, T/C [41]: 30.1% | viability, T/C [42]: 14.5% | viability, T/C [43]: 11.1% | viability, T/C [44]: 8.76% | viability, T/C [45]: 6.3% | viability, T/C [25]: 0.09% | viability, T/C [46]: 0.29% | viability, T/C [47]: 0.03% | viability, T/C [48]: 0.03% | viability, T/C [49]: 0.03% | viability, T/C [50]: 0.11% | viability, T/C [30]: 0.08% | viability, T/C [51]: 0.09% | viability, T/C [52]: 0.1% | viability, T/C [53]: 0.09% | viability, T/C [54]: 0.1% | viability, T/C [55]: 0.15%

CC(C)n1nc(-c2ccc3oc(N)nc3c2)c2c(N)ncnc21 + C=CC(=O)N1CCN(c2nc(=O)n(-c3c(C)ccnc3C(C)C)c3nc(-c4c(O)cccc4F)c(F)cc23)C(C)C1
IC50 [1]: 6.89 nM | IC50 [2]: 9.61 nM | IC50 [3]: 11.7 nM | IC50 [4]: 4.93 nM | IC50 [5]: < 0.316 nM | viability, T/C [6]: 107% | viability, T/C [7]: 88.6% | viability, T/C [8]: 62% | viability, T/C [9]: 44.5% | viability, T/C [10]: 32.8% | viability, T/C [31]: 27% | viability, T/C [11]: 111% | viability, T/C [12]: 99.7% | viability, T/C [13]: 66.9% | viability, T/C [14]: 53.6% | viability, T/C [15]: 33.6% | viability, T/C [36]: 29.7% | viability, T/C [16]: 121% | viability, T/C [17]: 99.7% | viability, T/C [18]: 77.1% | viability, T/C [19]: 50.4% | viability, T/C [20]: 38.3% | viability, T/C [41]: 32.3% | viability, T/C [21]: 68.4% | viability, T/C [22]: 72.6% | viability, T/C [23]: 55.3% | viability, T/C [24]: 40.1% | viability, T/C [25]: 36.7% | viability, T/C [46]: 30.9% | viability, T/C [26]: 26.3% | viability, T/C [27]: 33.3% | viability, T/C [28]: 30% | viability, T/C [29]: 31.2% | viability, T/C [30]: 29.5% | viability, T/C [51]: 27.1%

Cn1nccc1Nc1nccc(-c2cc3c(s2)C(C)(C)N(CCN2CCOCC2)C3=O)n1 + C=CC(=O)N1CCN(c2nc(=O)n(-c3c(C)ccnc3C(C)C)c3nc(-c4c(O)cccc4F)c(F)cc23)C(C)C1
IC50 [1]: 122 nM | IC50 [2]: 131 nM | IC50 [3]: 111 nM | IC50 [4]: 77.7 nM | IC50 [5]: < 31.6 nM | viability, T/C [10]: 95.1% | viability, T/C [31]: 55.6% | viability, T/C [32]: 23.7% | viability, T/C [33]: 12.3% | viability, T/C [34]: 11.2% | viability, T/C [35]: 11.1% | viability, T/C [15]: 107% | viability, T/C [36]: 58.5% | viability, T/C [37]: 21.9% | viability, T/C [38]: 13.7% | viability, T/C [39]: 12.4% | viability, T/C [40]: 12.6% | viability, T/C [20]: 115% | viability, T/C [41]: 52.7% | viability, T/C [42]: 22.5% | viability, T/C [43]: 15.2% | viability, T/C [44]: 12.5% | viability, T/C [45]: 14.4% | viability, T/C [25]: 76.6% | viability, T/C [46]: 42.5% | viability, T/C [47]: 19.2% | viability, T/C [48]: 14.3% | viability, T/C [49]: 13.8% | viability, T/C [50]: 17.2% | viability, T/C [30]: 25.2% | viability, T/C [51]: 18% | viability, T/C [52]: 14.6% | viability, T/C [53]: 14.4% | viability, T/C [54]: 15.1% | viability, T/C [55]: 19.5%

Reference: PubChem BioAssay AID1963870 (Molecular Pharmacology Branch, DTP, NCI, 2024)
